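Grown in 96-well plates, cells were treated for 48 hours with each compound at five concentrations. Insufficient inhibition: endpoint recorded as highest concentration tested. GI50 marks 50% less growth.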 Activity calls are given as the source filed them. Rule as the data show it: active = GI50 up to about 1.1 µM and inactive = higher.
Columns and labels:
Assay in all cases: NCI anticancer screen, dose series, 48 h
DLD-1 = test system: DLD-1
DMS-114 = test system: DMS-114
KM-20L2 = test system: KM-20L2
LXFL 529 = test system: LXFL 529
XF498 = test system: XF498
DMS-273 = test system: DMS-273
HOP-18 = test system: HOP-18
Hs-578T = test system: Hs-578T
RXF 631 = test system: RXF 631

| SMILES | GI50 (DLD-1) | GI50 (DMS-114) | GI50 (KM-20L2) | GI50 (LXFL 529) | GI50 (Hs-578T) | also measured |
| --- | --- | --- | --- | --- | --- | --- |
| CC1=NN(C(=O)c2ccccc2O)C(=O)/C1=C/c1ccccc1O | 0.0807 µM (active) | 0.0853 µM (active) | 11.5 µM (inactive) | 0.0573 µM (active) |  | GI50 (XF498): 0.365 µM (active) |
| CN(C)CC1(Cc2ccccc2)CCC(Cc2ccccc2)C1=O (centres undefined) | 2.86 µM (inactive) | 15.8 µM (inactive) | 17.1 µM (inactive) | 2.71 µM (inactive) | 15.6 µM (inactive) | GI50 (DMS-273): 10.5 µM (inactive); GI50 (HOP-18): 8.47 µM (inactive); GI50 (XF498): 21.9 µM (inactive) |
| CSc1ccc2c(c1)c(CCN)c(C)n2Cc1ccccc1Cl |  |  |  |  | 1.67 µM (inactive) |  |
| COC(=O)C1=CC2C=CC(C1C(=O)OC)C1C(C(=O)OC)=C(C(=O)OC)C(C(=O)OC)=C(C(=O)OC)C21OC (centres undefined) | > 100 µM (inactive) | > 100 µM (inactive) | > 100 µM (inactive) | > 100 µM (inactive) |  | GI50 (DMS-273): > 100 µM (inactive); GI50 (HOP-18): > 100 µM (inactive); GI50 (RXF 631): > 100 µM (inactive) |
| O=C1c2cscc2C(=O)c2c(OCc3ccccc3)ccc(OCc3ccccc3)c21 |  |  |  |  | > 100 µM (inactive) |  |
| COC(=O)c1ccccc1C1CN=NC12Cc1c(C)cc(C)cc1C2=O (centres undefined) |  |  |  |  | > 100 µM (inactive) |  |
| Cc1cc(S(=O)(=O)N=C2N(Cc3ccccc3)CCN2Cc2ccccc2)c(S)cc1Cl |  |  |  |  | > 100 µM (inactive) |  |
| CNC(=O)OCc1nccc2c(C)c3[nH]c4ccc(OC)cc4c3cc12 | 2.99 µM (inactive) | 2.92 µM (inactive) | 3.11 µM (inactive) | 5.74 µM (inactive) |  | GI50 (DMS-273): 7.23 µM (inactive); GI50 (HOP-18): 2.47 µM (inactive); GI50 (XF498): 14.1 µM (inactive) |
| CN1CCc2c(sc3nc(Nc4ccccc4)n(N)c(=O)c23)C1 |  |  |  |  | > 100 µM (inactive) |  |
| Cc1cnc2nc(-c3ccc(F)cc3)cc(O)c2c1 |  |  |  |  | 24.1 µM (inactive) |  |
| COc1cc(C2C3=C(COC3=O)OC(C)(C)Oc3cc4c(cc32)OCO4)cc(OC)c1OC (centres undefined) |  |  |  |  | 0.301 µM (active) |  |
| O=[N+]([O-])/C=C1\COCc2cc3c(cc21)OCO3 |  |  |  |  | 26.9 µM (inactive) |  |
| O=C(NNCc1ccco1)c1cc2ccccc2[nH]1 |  |  |  |  | 14.9 µM (inactive) |  |
| CC1(C)[C@@H]2CC[C@@]1(C)[C@H](O)[C@@H]2SCc1ccccc1 |  |  |  |  | 14.2 µM (inactive) |  |
| COc1ccc2nc3ccc(OC)cc3c(SCCCl)c2c1 |  |  |  |  | 5.07 µM (inactive) |  |
| Cc1cccc(NC(=O)CC(=O)N2N=C(N(CCC#N)c3ccc(Cl)cc3)CC2c2ccccc2)c1 (centres undefined) | > 100 µM (inactive) | > 100 µM (inactive) |  | > 100 µM (inactive) |  | GI50 (DMS-273): > 100 µM (inactive); GI50 (HOP-18): > 100 µM (inactive); GI50 (RXF 631): > 100 µM (inactive); GI50 (XF498): > 100 µM (inactive) |
| O=c1c2c([nH]c3cc4c(cc13)OCO4)-c1ccccc1C2 | 23.5 µM (inactive) |  | 19 µM (inactive) | 22.7 µM (inactive) |  | GI50 (DMS-273): 19.2 µM (inactive); GI50 (HOP-18): 24.2 µM (inactive); GI50 (XF498): 24.2 µM (inactive) |

| SMILES | GI50 (DLD-1) | GI50 (DMS-114) | GI50 (KM-20L2) | GI50 (LXFL 529) | GI50 (Hs-578T) | also measured |
| --- | --- | --- | --- | --- | --- | --- |
| O=C(O)CN(CC(=O)O)Cc1ccn(-c2cccc(-n3ccc(CN(CC(=O)O)CC(=O)O)n3)n2)n1 |  |  |  |  | > 100 µM (inactive) |  |
| COc1ccc2c(c1)[n+]([O-])c(C(=O)CC(=O)C(=O)Nc1cccc(C)c1C)c(C)[n+]2[O-] | > 100 µM (inactive) | > 100 µM (inactive) | > 100 µM (inactive) | > 100 µM (inactive) |  | GI50 (HOP-18): > 100 µM (inactive); GI50 (RXF 631): > 100 µM (inactive); GI50 (XF498): > 100 µM (inactive) |
| COc1cc2c[n+](C)c3c(c2cc1OC)Cc1cc2c(cc1-3)OCO2 |  |  |  |  | > 100 µM (inactive) |  |
| Brc1cc2c(cc1C1SCCS1)OCO2 | > 100 µM (inactive) | 37.3 µM (inactive) | > 100 µM (inactive) | > 100 µM (inactive) |  | GI50 (DMS-273): > 100 µM (inactive); GI50 (HOP-18): > 100 µM (inactive); GI50 (RXF 631): > 100 µM (inactive) |
| COc1ccc(/C=C2\C[C@H]3[C@@H]4CC=C5C[C@@H](OC(C)=O)CC[C@]5(C)[C@H]4CC[C@]3(C)C2=O)cc1OC |  |  |  |  | 58.6 µM (inactive) |  |
| CCOc1ccccc1NC(=O)CC1SC(Nc2ccc([N+](=O)[O-])cc2)=NC1=O (centres undefined) | 22.9 µM (inactive) | 13.1 µM (inactive) | 19.4 µM (inactive) | 17.7 µM (inactive) |  | GI50 (HOP-18): 17.6 µM (inactive); GI50 (XF498): 15.8 µM (inactive) |
| Nc1nc(N)c2c(n1)NC(c1ccccc1)CC(/C=C/c1ccc(Cl)cc1)=N2 (centres undefined) |  |  |  |  | 2.95 µM (inactive) |  |
| Nc1ccc2nc3ccc(N)cc3[n+](-c3ccccc3)c2c1 |  |  |  |  | 40.6 µM (inactive) |  |
| N=c1oc2cc(O)ccc2cc1C(=O)Nc1ccccn1 |  |  |  |  | > 100 µM (inactive) |  |
| CN1C(=O)CCC2[C@@H]3CC=C4C[C@@H](O)CC[C@]4(C)C3CC[C@@]21C (some centres undefined) | > 100 µM (inactive) | 16.4 µM (inactive) | 53.5 µM (inactive) | 29.1 µM (inactive) |  | GI50 (DMS-273): 64.1 µM (inactive); GI50 (RXF 631): 28 µM (inactive); GI50 (XF498): 45.7 µM (inactive) |
| CCOc1ccccc1NC(=O)C1=C(C)NC(C)=C(C(=O)Nc2ccccc2OCC)C1c1ccc2c(c1)OCO2 | 22.2 µM (inactive) | 16.9 µM (inactive) | 26.4 µM (inactive) | 17.9 µM (inactive) |  | GI50 (XF498): 12.8 µM (inactive) |
| NCCNCCCCCCNC(=O)c1cccc2cc3ccccc3nc12 |  |  |  |  | 1.88 µM (inactive) |  |
| O=c1ccn(C2OC(CO)C(P(=O)(O)O)C2O)c(=O)[nH]1 (centres undefined) |  |  |  |  | > 100 µM (inactive) |  |
| O=C1CC(C(=O)N2CCCCC2)n2c(=O)n(-c3ccccc3)c(=O)n2C1 (centres undefined) |  |  |  |  | > 100 µM (inactive) |  |
| Nn1c(Cc2ccc(Cl)cc2)n[nH]c1=O |  |  |  |  | > 100 µM (inactive) |  |
| CCOC(=O)c1c(Br)c(-c2ccc([N+](=O)[O-])cc2)c(Br)n1C |  |  |  |  | 5.06 µM (inactive) |  |

— ChEMBL document CHEMBL1201862, “PubChem BioAssay data set” (2004)
